In patent US20220289794A1, “SYNTHETIC ANTIMICROBIAL PEPTIDES” (priority 2019, published 2022):
In brackets after ≈: the same amount, converted by molar mass. Where two headings read alike, the source gives them in different places.

Experiments:
[1] = test system: Pseudomonas aeruginosa (PSA, ATCC 27883); test: Synergy checkerboard assay (FIC index); assay type: cell-based; settings: Pseudomonas aeruginosa (ATCC 27883), antibiotic alone; for MIC: ATCC27883, 24 h
[2] = test system: Klebsiella pneumoniae (KPC, ATCC BAA-1705); test: microbe, parasite or virus in culture; settings: ATCCBAA1705, 24 h, read-out: MIC of antibiotic
[3] = test system: Methicillin-resistant Staphylococcus aureus MRSA (ATCC BAA-1556); test: microbe, parasite or virus in culture; settings: ATCCBAA1556|MRSA, 24 h
[4] = test system: Escherichia coli (E. Coli, ATCC 25922); test: microbe, parasite or virus in culture; settings: ATCC25922, 24 h
[5] = test system: Pseudomonas aeruginosa (PSA, ATCC 27883); test: microbe, parasite or virus in culture; settings: ATCC27883, 24 h
[6] = test system: Klebsiella pneumoniae (KPC, ATCC BAA-1705); test: microbe, parasite or virus in culture; settings: ATCCBAA1705, 24 h
[7] = test system: Escherichia coli (E. Coli, ATCC 25922); settings: Escherichia coli (ATCC 25922), antibiotic alone
[8] = test system: Klebsiella pneumoniae (KPC, ATCC BAA-1705); settings: Klebsiella pneumoniae (ATCC BAA-1705), antibiotic alone; for MIC of antibiotics: Table 26
[9] = test system: Escherichia coli (E. Coli, ATCC 25922)
KPC = settings: Klebsiella pneumoniae (ATCC BAA-1705)
[10] = test system: Methicillin-resistant Staphylococcus aureus MRSA (ATCC BAA-1556)
[11] = test system: Pseudomonas aeruginosa (PSA, ATCC 27883)
E. coli = E. coli ATCC 25922
PSA = settings: P. aeruginosa ATCC 27883
[12] = test system: Acinetobacter baumannii (ATCC BAA-1605); settings: Acinetobacter baumannii (ATCC BAA-1605)
[13] = test system: Pseudomonas aeruginosa (ATCC 10145); settings: Pseudomonas aeruginosa (ATCC 10145)
[14] = test system: Escherichia coli (ATCC BAA-2452); settings: Escherichia coli (ATCC BAA-2452)
[15] = test system: Klebsiella pneumoniae (KPC, ATCC BAA-1705)
[16] = test system: Klebsiella pneumoniae ATCC 13883; settings: Klebsiella pneumonia (ATCC 13883)
[17] = test system: Pseudomonas aeruginosa (ATCC BAA-1744); settings: Pseudomonas aeruginosa (ATCC BAA-1744)
[18] = read-out: Escherichia coli (ATCC 25922) MIC, Table 28, IFX-031, antibiotics alone and PHY-MIX (1:1 w/w)
[19] = read-out: Escherichia coli (ATCC 25922) MIC, Table 29, [R6W4] (IFX-318), antibiotics alone and PHY-MIX (1:1 w/w)
[20] = read-out: Escherichia coli (ATCC 25922) MIC, Table 30, [R5W4K] (IFX-315), antibiotics alone and PHY-MIX (1:1 w/w)
[21] = read-out: Escherichia coli (ATCC 25922) MIC, Table 31, [R5W4] (IFX-301), antibiotics alone and PHY-MIX (1:1 w/w)
[22] = read-out: Pseudomonas aeruginosa (ATCC 27883) MIC, Table 28, IFX-031, antibiotics alone and PHY-MIX (1:1 w/w)
[23] = read-out: Pseudomonas aeruginosa (ATCC 27883) MIC, Table 29, [R6W4] (IFX-318), antibiotics alone and PHY-MIX (1:1 w/w)
[24] = read-out: Pseudomonas aeruginosa (ATCC 27883) MIC, Table 30, [R5W4K] (IFX-315), antibiotics alone and PHY-MIX (1:1 w/w)
[25] = read-out: Pseudomonas aeruginosa (ATCC 27883) MIC, Table 31, [R5W4] (IFX-301), antibiotics alone and PHY-MIX (1:1 w/w)
[26] = read-out: Klebsiella pneumoniae (ATCC BAA-1705) MIC, Table 28, IFX-031, antibiotics alone and PHY-MIX (1:1 w/w)
[27] = read-out: Klebsiella pneumoniae (ATCC BAA-1705) MIC, Table 29, [R6W4] (IFX-318), antibiotics alone and PHY-MIX (1:1 w/w)
[28] = read-out: Klebsiella pneumoniae (ATCC BAA-1705) MIC, Table 30, [R5W4K] (IFX-315), antibiotics alone and PHY-MIX (1:1 w/w)
[29] = read-out: Klebsiella pneumoniae (ATCC BAA-1705) MIC, Table 31, [R5W4] (IFX-301), antibiotics alone and PHY-MIX (1:1 w/w)
[30] = Table 28, IFX-031, antibiotics alone and PHY-MIX (1:1 w/w)
[31] = Table 29, [R6W4] (IFX-318), antibiotics alone and PHY-MIX (1:1 w/w)
[32] = Table 30, [R5W4K] (IFX-315), antibiotics alone and PHY-MIX (1:1 w/w)
[33] = Table 31, [R5W4] (IFX-301), antibiotics alone and PHY-MIX (1:1 w/w)

`NC[C@H]1O[C@H](O[C@H]2[C@H](O)[C@@H](O[C@H]3O[C@H](CO)[C@@H](O)[C@H](N)[C@H]3O)[C@H](N)C[C@@H]2N)[C@H](O)[C@@H](O)[C@@H]1O` [Kanamycin] showed an MIC ([1]; Table 25) of 256 µg/mL, an MIC [2] of 64 µg/mL and an MIC ([3]; read-out: MRSA (ATCC BAA-1556) MIC, Table 28, IFX-031, antibiotics alone and PHY-MIX (1:1 w/w)) greater than 64 µg/mL. The MIC ([3]; read-out: MRSA (ATCC BAA-1556) MIC, Table 29, [R6W4] (IFX-318), antibiotics alone and PHY-MIX (1:1 w/w)) was greater than 64 µg/mL, the MIC ([3]; read-out: MRSA (ATCC BAA-1556) MIC, Table 30, [R5W4K] (IFX-315), antibiotics alone and PHY-MIX (1:1 w/w)) was greater than 64 µg/mL and the MIC ([3]; read-out: MRSA (ATCC BAA-1556) MIC, Table 31, [R5W4] (IFX-301), antibiotics alone and PHY-MIX (1:1 w/w)) was greater than 64 µg/mL. The MIC [4, 18] was 32 µg/mL (≈ 66 µM), the MIC [4, 19] was 32 µg/mL (≈ 66 µM) and the MIC [4, 20] was 32 µg/mL (≈ 66 µM). For the same molecule, the MIC [4, 21] was 32 µg/mL (≈ 66 µM), the MIC [5, 22] was greater than 64 µg/mL and the MIC [5, 23] was greater than 64 µg/mL. The MIC [5, 24] was greater than 64 µg/mL, the MIC [5, 25] was greater than 64 µg/mL and the MIC [6, 26] was 64 µg/mL (≈ 132 µM). It also gave an MIC [6, 27] of 64 µg/mL (≈ 132 µM), an MIC [6, 28] of 64 µg/mL (≈ 132 µM) and an MIC [6, 29] of 64 µg/mL (≈ 132 µM). For the same molecule, the MIC of antibiotic [7] was 32 µg/mL, the MIC of antibiotic ([7]; Table 25) was 32 µg/mL and the MIC of antibiotic ([7]; Table 26) was 32 µg/mL. For the same molecule, the MIC of antibiotic [8] was 64 µg/mL and the MIC of antibiotics [8] was 64 µg/mL.
In the case of `C[C@H]1COc2c(N3CCN(C)CC3)c(F)cc3c(=O)c(C(=O)O)cn1c23` [Levofloxacin], the MIC ([1]; Table 25) is reported as 1 µg/mL, the MIC of antibiotic ([1]; Table 26) is reported as 1 µg/mL and the MIC [2] is reported as 64 µg/mL. The MIC [4, 18] was 16 µg/mL (≈ 44.3 µM), the MIC [4, 19] was 64 µg/mL (≈ 177 µM) and the MIC [4, 20] was 64 µg/mL (≈ 177 µM). For the same molecule, the MIC [4, 21] was 64 µg/mL (≈ 177 µM), the MIC [5, 22] was 1 µg/mL (≈ 2.77 µM) and the MIC [5, 23] was 1 µg/mL (≈ 2.77 µM). It also gave an MIC [5, 24] of 1 µg/mL (≈ 2.77 µM), an MIC [5, 25] of 1 µg/mL (≈ 2.77 µM) and an MIC [6, 26] of 32 µg/mL (≈ 88.6 µM). It also gave an MIC [6, 27] of 64 µg/mL (≈ 177 µM), an MIC [6, 28] of 64 µg/mL (≈ 177 µM) and an MIC [6, 29] of 64 µg/mL (≈ 177 µM). It also gave an MIC of antibiotic [7] of 64 µg/mL, an MIC of antibiotic ([7]; Table 25) of 64 µg/mL and an MIC of antibiotic ([7]; Table 26) of 64 µg/mL. It also gave an MIC of antibiotic [8] of 64 µg/mL.
Molecule Polymyxin has an MIC of antibiotic ([1]; Table 25) of 1 µg/mL, an MIC of antibiotic ([1]; Table 26) of 1 µg/mL and an antibiotic MIC ([1]; Table 27) of 1 µg/mL. The “Escherichia coli (ATCC 25922) MIC” value [9, 30] was 2 µg/mL, the “Escherichia coli (ATCC 25922) MIC” value [9, 31] was 2 µg/mL and the “Escherichia coli (ATCC 25922) MIC” value [9, 32] was 2 µg/mL. For the same molecule, the “Escherichia coli (ATCC 25922) MIC” value [9, 33] was 2 µg/mL, the MIC (KPC; Table 35) was 0.5 µg/mL and the MIC (KPC; Table 36) was 0.5 µg/mL. The “MRSA (ATCC BAA-1556) MIC” value [10, 30] was 64 µg/mL, the “MRSA (ATCC BAA-1556) MIC” value [10, 31] was 64 µg/mL and the “MRSA (ATCC BAA-1556) MIC” value [10, 32] was 64 µg/mL. For the same molecule, the “MRSA (ATCC BAA-1556) MIC” value [10, 33] was 64 µg/mL, the “Pseudomonas aeruginosa (ATCC 27883) MIC” value [11, 30] was 1 µg/mL and the “Pseudomonas aeruginosa (ATCC 27883) MIC” value [11, 31] was 1 µg/mL. The “Pseudomonas aeruginosa (ATCC 27883) MIC” value [11, 32] was 1 µg/mL, the “Pseudomonas aeruginosa (ATCC 27883) MIC” value [11, 33] was 1 µg/mL and the MIC (E. coli; Table 35) was 2 µg/mL. The MIC (E. coli; Table 36) was 2 µg/mL, the MIC (PSA; Table 35) was 1 µg/mL and the MIC (PSA; Table 36) was 1 µg/mL. For the same molecule, the MIC ([12]; Table 35) was 1 µg/mL, the MIC ([12]; Table 36) was 1 µg/mL and the MIC ([13]; Table 35) was 2 µg/mL. The MIC ([13]; Table 36) was 2 µg/mL, the MIC of antibiotic [7] was 2 µg/mL and the MIC of antibiotic ([7]; Table 25) was 2 µg/mL. For the same molecule, the MIC of antibiotic ([7]; Table 26) was 2 µg/mL, the “Polymyxin MIC” value ([7]; Table 27) was 2 µg/mL and the MIC ([14]; Table 35) was 1 µg/mL. For the same molecule, the MIC ([14]; Table 36) was 1 µg/mL, the “Klebsiella pneumoniae (ATCC BAA-1705) MIC” value (“Klebsiella pneumoniae” below) [15, 30] was 1 µg/mL and the “Klebsiella pneumoniae” value [15, 31] was 1 µg/mL. For the same molecule, the “Klebsiella pneumoniae” value [15, 32] was 1 µg/mL, the “Klebsiella pneumoniae” value [15, 33] was 1 µg/mL and the MIC of antibiotic [8] was 1 µg/mL. The MIC of antibiotic ([8]; Table 25) was 1 µg/mL, the MIC of antibiotics [8] was 1 µg/mL and the “Polymyxin MIC” value ([8]; Table 27) was 0.5 µg/mL. It also gave an MIC ([16]; Table 35) of 1 µg/mL, an MIC ([16]; Table 36) of 1 µg/mL and an MIC ([17]; Table 35) of 2 µg/mL. It also gave an MIC ([17]; Table 36) of 2 µg/mL.
